# Like-named read-outs stand apart in the source and are kept apart here.
# Legend:
# Assay type in all cases: in vivo
# [1] = system: Pyricularia oryzae (rice blast); experiment: whole plant or invertebrate; settings: for pest or weed control at 400 ppm: Pyricularia oryzae, foliar, read-out: RICE BLAST, Test 1, foliar spray on rice, disease control rating at 400 ppm / 100 ppm; for RICE BLAST: disease control rating, foliar spray on rice, 400 ppm (+++ at 100 ppm)
# [2] = system: Twospotted spider mites (Tetranychus urticae Koch); experiment: Mite/insect screen, SM; settings: for mortality at 200 ppm / mortality at 400 ppm: Tetranychus urticae, percent mortality, read-out: SM RESULTS %; for activity as miticides: summary statement in the description
# Procedure: (§1) The compounds of Examples 1-295 were tested for miticidal and insecticidal activity in the following mite/insect screen.
# (§2) Each test compound was formulated by dissolving the compound in acetone/alcohol (50:50) mixture containing 23 g of "TOXIMUL R" (sulfonate/nonionic emulsifier blend) and 13 g of "TOXIMUL S" (sulfonate/nonionic emulsifier blend) per liter. These mixtures were then diluted with water to give the indicated concentrations.
# (§3) Other plants in the same treatment pot were left uninfested. The leaves were then sprayed with 5 ml of test solution using a DeVilbiss atomizing sprayer at 10 psi. Both surfaces of the leaves were covered until runoff, and then allowed to dry for one hour. Two uninfested leaves were then excised and placed into a Petri dish containing southern armyworm (Spodopetra eridania Cramer).
# (§4) After standard exposure periods, percent mortality was evaluated. […]
# corn rootworm = experiment: Mite/insect screen, CRW; settings: percent mortality, read-out: CRW RESULTS %
# Procedure: as §1, §2, §4
# [3] = system: Pseudoperonospora cubensis (downy mildew); experiment: Test 1 greenhouse foliar spray screen, downy mildew on squash; settings: for pest or weed control at 400 ppm: Pseudoperonospora cubensis, foliar, Test 1, foliar spray on squash, disease control rating at 400 ppm / 100 ppm, read-out: DOWN MDEW; for DOWN MDEW: disease control rating, foliar spray on squash, 400 ppm (+++ at 100 ppm)
# [4] = system: melon aphids (Aphis gossypii Glover); experiment: Mite/insect screen, MA; settings: Aphis gossypii, percent mortality, read-out: MA RESULTS %
# Procedure: as §1, §2, §3, §4
# [5] = system: southern armyworm (Spodopetra eridania Cramer); experiment: Mite/insect screen, SAW; settings: Spodoptera eridania, percent mortality, read-out: SAW RESULTS %
# Procedure: as §1, §2, §3, §4
# [6] = system: Puccinia recondita tritici (leaf rust); experiment: Test 1 greenhouse foliar spray screen, leaf rust on wheat; settings: for pest or weed control at 400 ppm: Puccinia recondita, foliar, Test 1, foliar spray on wheat, disease control rating at 400 ppm / 100 ppm; for LEAF RUST: disease control rating, foliar spray on wheat, 400 ppm (+++ at 100 ppm)
# [7] = system: Botrytis cinerea (gray mold); experiment: Test 1 greenhouse foliar spray screen, gray mold on grape berries; settings: for pest or weed control at 400 ppm: Botrytis cinerea, foliar, Test 1, spray on grape berries, disease control rating at 400 ppm / 100 ppm; for GRAY MOLD: disease control rating, spray on grape berries, 400 ppm (+++ at 100 ppm)
# [8] = system: Erysiphe graminis tritici (powdery mildew); experiment: Test 1 greenhouse foliar spray screen, powdery mildew on wheat; settings: for pest or weed control at 400 ppm: Blumeria graminis, foliar, Test 1, foliar spray on wheat, disease control rating at 400 ppm / 100 ppm, read-out: POWD MDEW; for POWD MDEW: disease control rating, foliar spray on wheat, 400 ppm (+++ at 100 ppm)
# [9] = foliar, rate 200 ppm, foliar spray on squash
# [10] = foliar, rate 400 ppm, foliar spray on squash
SMILES,pest or weed control at 400 ppm [1],"mortality at 200 ppm [2, 9]","mortality at 400 ppm [2, 10]",mortality at 12 ppm (corn rootworm; CRW rate 12.00 ppm),mortality at 24 ppm (corn rootworm; CRW rate 24.00 ppm),pest or weed control at 400 ppm [3],"mortality at 200 ppm [4, 9]","mortality at 400 ppm [4, 10]","mortality at 200 ppm [5, 9]","mortality at 400 ppm [5, 10]",pest or weed control at 400 ppm [6],pest or weed control at 400 ppm [7],pest or weed control at 400 ppm [8],RICE BLAST [1],DOWN MDEW [3],LEAF RUST [6],GRAY MOLD [7],POWD MDEW [8],other results
"COC(C)CCOc1ccnc2c(F)cccc12 (stereo not drawn) [Example 266, 8-fluoro-4-[3-methoxybutoxy]quinoline]",0 to 19%,0%,0%,0%,0%,0 to 19%,0%,0%,0%,0%,0 to 19%,0 to 19%,0 to 19%,,,,,,
"Clc1ccc(CCNc2ccnc3cc(Cl)cc(Cl)c23)cc1 [Example 59, 5,7-dichloro-N-[2-(4-chlorophenyl)ethyl]-4-quinolinamine]",,,,,,,,,,,,,,+ (20-89% control at 400 ppm),- (0-19% control at 400 ppm),- (0-19% control at 400 ppm),- (0-19% control at 400 ppm),+ (20-89% control at 400 ppm),"mortality at 200 ppm ([2]; SAW, SM & MA RATE 200 PPM): 0%; mortality at 400 ppm ([2]; SAW, SM & MA RATE 400 PPM): 0%; mortality at 12 ppm (corn rootworm; CRW RATE 12.00 PPM): 0%; mortality at 24 ppm (corn rootworm; CRW RATE 24.00 PPM): 0%; mortality at 200 ppm ([4]; SAW, SM & MA RATE 200 PPM): 0%; mortality at 400 ppm ([4]; SAW, SM & MA RATE 400 PPM): 0%; mortality at 200 ppm ([5]; SAW, SM & MA RATE 200 PPM): 0%; mortality at 400 ppm ([5]; SAW, SM & MA RATE 400 PPM): 0%"
"Fc1cccc2c(NCCCc3ccc(-c4ccccc4)cc3)ccnc12 [Example 137, N-[3-(1,1'-biphenyl)-4-ylpropyl]-8-fluoro-4-quinolinamine]",,,,,,,,,,,,,,+++ (90-100% control at 100 ppm),+++ (90-100% control at 100 ppm),+ (20-89% control at 400 ppm),- (0-19% control at 400 ppm),+ (20-89% control at 400 ppm),"mortality at 400 ppm ([2]; SAW, SM & MA RATE 400 PPM): 80%; activity as miticides [2]: particularly excellent activity; mortality at 24 ppm (corn rootworm; CRW RATE 24.00 PPM): 0%; mortality at 400 ppm ([4]; SAW, SM & MA RATE 400 PPM): 80%; mortality at 400 ppm ([5]; SAW, SM & MA RATE 400 PPM): 100%"
"Fc1cccc2c(OCCc3cccc(Oc4ccccc4)c3)ccnc12 [Example 197, 8-fluoro-4-[2-(3-phenoxyphenyl)ethoxy]quinoline]",90 to 100%,,90%,,0%,20 to 89%,,80%,,80%,90 to 100%,0 to 19%,90 to 100%,,,,,,activity as miticides [2]: particularly excellent activity
"COc1ccccc1CCNc1ccnc2cc(Cl)ccc12 [Example 100, 7-chloro-N-[2-(2-methoxyphenyl)ethyl]-4-quinolinamine]",,,,,,,,,,,,,,+ (20-89% control at 400 ppm),+ (20-89% control at 400 ppm),+ (20-89% control at 400 ppm),- (0-19% control at 400 ppm),+ (20-89% control at 400 ppm),"mortality at 200 ppm ([2]; SAW, SM & MA RATE 200 PPM): 0%; mortality at 400 ppm ([2]; SAW, SM & MA RATE 400 PPM): 0%; mortality at 12 ppm (corn rootworm; CRW RATE 12.00 PPM): 0%; mortality at 24 ppm (corn rootworm; CRW RATE 24.00 PPM): 0%; mortality at 200 ppm ([4]; SAW, SM & MA RATE 200 PPM): 0%; mortality at 400 ppm ([4]; SAW, SM & MA RATE 400 PPM): 0%; mortality at 200 ppm ([5]; SAW, SM & MA RATE 200 PPM): 0%; mortality at 400 ppm ([5]; SAW, SM & MA RATE 400 PPM): 0%"
"Fc1cccc2c(OCC=Cc3ccccc3)ccnc12 [Example 243, 8-fluoro-4-[(3-phenyl-2-propenyl)oxy]quinoline]",0 to 19%,,0%,,0%,0 to 19%,,0%,,0%,0 to 19%,0 to 19%,0 to 19%,,,,,,
"Clc1ccc(CCCOc2ccnc3c(Cl)cccc23)cc1 [Example 242, 8-chloro-4-[3-(4-chlorophenyl)propoxy]quinoline]",0 to 19%,0%,0%,0%,0%,0 to 19%,0%,0%,0%,0%,0 to 19%,0 to 19%,0 to 19%,,,,,,
"Cc1ccc(CCOc2ccnc3cc(Cl)ccc23)cc1 [Example 204, 7-chloro-4-[2-(4-methylphenyl)ethoxy]quinoline]",0 to 19%,0%,0%,0%,0%,20 to 89%,0%,50%,0%,100%,20 to 89%,0 to 19%,20 to 89%,,,,,,
"Fc1cccc2c(NCCc3ccc(OCc4ccccc4)cc3)ccnc12 [Example 291, 8-fluoro-N-[2-[4-(phenylmethoxy)phenyl]ethyl]-4-quinolinamine]",90 to 100%,0%,0%,0%,0%,90 to 100%,100%,0%,0%,0%,90 to 100%,0 to 19%,90 to 100%,,,,,,
"Clc1cccc2c(CCCc3ccccc3)ccnc12 [Example 255, 8-chloro-4-(3-phenylpropyl)quinoline]",90 to 100%,,0%,,0%,20 to 89%,,0%,,0%,90 to 100%,0 to 19%,20 to 89%,,,,,,
"CC(=O)N(CCc1ccc(Cl)cc1)c1cc(N(CCc2ccc(Cl)cc2)C(C)=O)c2ccccc2n1 [Example 182, N,N'-(2,4-quinolinediyl)bis[N-[2-(4-chlorophenyl)ethyl]acetamide]]",,0%,0%,0%,0%,,0%,0%,0%,0%,,,,+ (20-89% control at 400 ppm),- (0-19% control at 400 ppm),- (0-19% control at 400 ppm),- (0-19% control at 400 ppm),- (0-19% control at 400 ppm),
"COc1cccc(CCOc2ccnc3c(F)cccc23)c1 [Example 195, 4-[2-(3-methoxyphenyl)ethoxy]-8-fluoroquinoline]",90 to 100%,,0%,,0%,90 to 100%,,0%,,0%,90 to 100%,0 to 19%,90 to 100%,,,,,,
"[O-][S+](CCc1ccccc1)c1ccnc2c(F)cccc12 (stereo not drawn) [Example 264, 8-fluoro-4-[(2-phenylethyl)sulfinyl]quinoline]",0 to 19%,0%,0%,0%,0%,,0%,0%,0%,0%,20 to 89%,0 to 19%,0 to 19%,,,,,,
